The text below walks through data of US20230295234A1, “ANTIMICROBIAL PEPTIDOMIMETICS” (SPEXIS AG, priority 2020, published 2023).

Data set [1] relates to human red blood cells (hRBC). Kind of data set: Hemolysis of human red blood cells. The format is cell-based. In short, it runs like this: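 Percent hemolysis is OD540 of peptide-treated supernatant relative to water-lysed cells. Each peptide was tested at 200 μg/mL against 20% (v/v) washed human erythrocytes. Incubation was 1 h at 37 °C, 300 rpm.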
The test system of data set [2] is Klebsiella pneumoniae SSI3010. In short, it runs like this: (§1)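 Peptides were made up as 1 mg/mL stocks in sterile water. Colonies in 0.85% saline were set to 0.5 McFarland, then diluted in cation-adjusted Mueller-Hinton II broth to about 5×10^5 CFU/mL. Inoculum was combined with two-fold serial peptide dilutions in water containing 0.002% (final) polysorbate 80.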

For data set [3], the system named is Escherichia coli ATCC 25922. In a few lines: as §1
Data set [4] concerns Escherichia coli MCR-1 Af 45. Conditions: Mueller-Hinton broth II, 18-20 hours at 35° C. In a few lines:
as §1

Where [5] appears, read: Mueller-Hinton broth II, 18-20 hours at 35° C.

Where two headings read alike, the source gives them in different places. Peptide text beside a SMILES is read from it.

For `CC[C@H](C)[C@H](NC(=O)[C@@H]1C[C@@H](O)CN1C(=O)[C@@H](N)C(C)C)C(=O)N[C@H](C(=O)N[C@@H](Cc1ccc(O)cc1)C(=O)N[C@@H]1C(=O)N[C@@H](CN)C(=O)N[C@@H](CCCNC(=N)N)C(=O)N[C@@H](CCN)C(=O)N[C@@H]([C@@H](C)O)C(=O)N[C@H](CCN)C(=O)N[C@@H](CCCCN)C(=O)N[C@H](C(=O)N[C@@H](CCN)C(=O)N[C@@H](CCCNC(=N)N)C(=O)N[C@@H](Cc2ccc(O)cc2)C(=O)O)CSSC1(C)C)[C@@H](C)O` [Example 182] (HELM PEPTIDE1{V.[Hyp].I.T.Y.[Pen].[NC[C@H](N[*:1])C(=O)[*:2]].R.[Dab].T.[NCC[C@@H](N[*:1])C(=O)[*:2]].K.C.[Dab].R.Y}$PEPTIDE1,PEPTIDE1,6:R3-13:R3$$$V2.0), the “Hemolysis at 0.2 g/L” value in data set [1] (red cells of human, 1 h) is 0%. Also, the “Klebsiella pneumoniae SSI3010 MIC” value in data set [2] (SSI3010) came out at 0.25 µg/mL. Further, in data set [3] (ATCC 25922), the “Escherichia coli ATCC 25922 MIC” value was 0.0625 µg/mL. In data set [4], the “Escherichia coli MCR-1 Af 45 MIC” value came out at 0.125 µg/mL.

As to `CC[C@H](C)[C@H](NC(=O)[C@@H]1C[C@@H](O)CN1C(=O)[C@@H](N)C(C)C)C(=O)N[C@@H](CN)C(=O)N[C@@H](Cc1ccc(O)cc1)C(=O)N[C@@H]1C(=O)N[C@@H](CC(N)=O)C(=O)N[C@@H](CCCNC(=N)N)C(=O)N[C@@H](CCN)C(=O)N[C@@H]([C@@H](C)O)C(=O)N[C@H](CCN)C(=O)N[C@@H](CCCCN)C(=O)N[C@H](C(=O)N[C@@H](CCN)C(=O)N[C@@H](CCCNC(=N)N)C(=O)N[C@@H](Cc2ccc(O)cc2)C(=O)O)CSSC1(C)C` [Example 183] (HELM PEPTIDE1{V.[Hyp].I.[NC[C@H](N[*:1])C(=O)[*:2]].Y.[Pen].N.R.[Dab].T.[NCC[C@@H](N[*:1])C(=O)[*:2]].K.C.[Dab].R.Y}$PEPTIDE1,PEPTIDE1,6:R3-13:R3$$$V2.0), the “Hemolysis at 0.2 g/L” value in data set [1] (red cells of human, 1 h) came to 0%. The “Klebsiella pneumoniae SSI3010 MIC” value in data set [2] (SSI3010) was 0.5 µg/mL. The “Escherichia coli ATCC 25922 MIC” value in data set [3] (ATCC 25922) was 0.25 µg/mL. In addition, the “Escherichia coli MCR-1 Af 45 MIC” value in data set [4] was found to be 0.125 µg/mL.

Turning to `CC[C@H](C)[C@H](NC(=O)[C@@H]1C[C@@H](O)CN1C(=O)[C@@H](N)C(C)C)C(=O)N[C@@H](CCCNC(=N)N)C(=O)N[C@@H](Cc1ccc(O)cc1)C(=O)N[C@@H]1C(=O)N[C@@H](CC(N)=O)C(=O)N[C@@H](CCCNC(=N)N)C(=O)N[C@@H](CCN)C(=O)N[C@@H]([C@@H](C)O)C(=O)N[C@H](CCN)C(=O)N[C@@H](CCCCN)C(=O)N[C@H](C(=O)N[C@@H](CCN)C(=O)N[C@@H](CCCNC(=N)N)C(=O)N[C@@H](Cc2ccc(O)cc2)C(=O)O)CSSC1(C)C` [Example 184] (HELM PEPTIDE1{V.[Hyp].I.R.Y.[Pen].N.R.[Dab].T.[NCC[C@@H](N[*:1])C(=O)[*:2]].K.C.[Dab].R.Y}$PEPTIDE1,PEPTIDE1,6:R3-13:R3$$$V2.0), the “Hemolysis at 0.2 g/L” value in data set [1] (red cells of human, 1 h) is 0%. In addition, the “Klebsiella pneumoniae SSI3010 MIC” value in data set [2] (SSI3010) came out at 0.25 µg/mL. Besides, the “Escherichia coli ATCC 25922 MIC” value in data set [3] (ATCC 25922) amounted to 0.25 µg/mL. For the same compound, in data set [4], the “Escherichia coli MCR-1 Af 45 MIC” value came to 0.0625 µg/mL.

Take `CC[C@H](C)[C@H](NC(=O)[C@@H]1C[C@@H](N)CN1C(=O)[C@@H](N)C(C)C)C(=O)N[C@H](C(=O)N[C@@H](Cc1ccc(O)cc1)C(=O)N[C@@H]1C(=O)N[C@@H](CC(N)=O)C(=O)N[C@@H](CCCNC(=N)N)C(=O)N[C@@H](CCN)C(=O)N[C@@H]([C@@H](C)O)C(=O)N[C@H](CCN)C(=O)N[C@@H](CCCCN)C(=O)N[C@H](C(=O)N[C@@H](Cc2ccc(O)cc2)C(=O)N[C@@H](CCCNC(=N)N)C(=O)N[C@@H](Cc2ccc(O)cc2)C(=O)O)CSSC1(C)C)[C@@H](C)O` [Example 185] (HELM PEPTIDE1{V.[N[C@@H]1C[C@@H](C(=O)[*:2])N([*:1])C1].I.T.Y.[Pen].N.R.[Dab].T.[NCC[C@@H](N[*:1])C(=O)[*:2]].K.C.Y.R.Y}$PEPTIDE1,PEPTIDE1,6:R3-13:R3$$$V2.0): in data set [1] (red cells of human, 1 h), the “Hemolysis at 0.2 g/L” value is on record as 0%. Also, in data set [2] (SSI3010), the “Klebsiella pneumoniae SSI3010 MIC” value was 0.5 µg/mL. Further, the “Escherichia coli ATCC 25922 MIC” value in data set [3] (ATCC 25922) is 0.25 µg/mL. Also, the “Escherichia coli MCR-1 Af 45 MIC” value in data set [4] worked out at 0.125 µg/mL.

Consider `CC[C@H](C)[C@H](NC(=O)[C@@H](NC(=O)[C@@H]1CCCN1C(=O)[C@@H](NC(=N)N)C(C)C)[C@@H](C)CC)C(=O)N[C@@H](Cc1ccc(O)cc1)C(=O)N[C@H]1CSSC[C@@H](C(=O)N[C@@H](CCN)C(=O)N[C@@H](CCCNC(=N)N)C(=O)N[C@@H](Cc2ccc(O)cc2)C(=O)O)NC(=O)[C@H](CCCCN)NC(=O)[C@@H](CCN)NC(=O)[C@H]([C@@H](C)O)NC(=O)[C@H](CCN)NC(=O)[C@H](CCCNC(=N)N)NC(=O)[C@H](CC(N)=O)NC1=O` [Example 186] (HELM PEPTIDE1{[CC(C)[C@H](NC(=N)N)C(=O)[*:2]].P.I.I.Y.C.N.R.[Dab].T.[NCC[C@@H](N[*:1])C(=O)[*:2]].K.C.[Dab].R.Y}$PEPTIDE1,PEPTIDE1,6:R3-13:R3$$$V2.0), for which the “Hemolysis at 0.2 g/L” value in data set [1] (red cells of human, 1 h) worked out at 0%. Moreover, the “Klebsiella pneumoniae SSI3010 MIC” value in data set [2] (SSI3010) is at most 0.25 µg/mL. Also, in data set [3] (ATCC 25922), the “Escherichia coli ATCC 25922 MIC” value was 0.125 µg/mL. Also, the “Escherichia coli MCR-1 Af 45 MIC” value in data set [4] was 0.125 µg/mL.

For the compound `CC[C@H](C)[C@H](NC(=O)[C@@H](NC(=O)[C@@H]1CCCN1C(=O)[C@@H](NC(=N)N)C(C)C)[C@@H](C)CC)C(=O)N[C@@H](Cc1ccc(O)cc1)C(=O)N[C@@H]1C(=O)N[C@@H](CC(N)=O)C(=O)N[C@@H](CCCNC(=N)N)C(=O)N[C@@H](CCN)C(=O)N[C@@H]([C@@H](C)O)C(=O)N[C@H](CCN)C(=O)N[C@@H](CCCCN)C(=O)N[C@H](C(=O)N[C@@H](CCN)C(=O)N[C@@H](CCCNC(=N)N)C(=O)N[C@@H](Cc2ccc(O)cc2)C(=O)O)CSSC1(C)C` [Example 187] (HELM PEPTIDE1{[CC(C)[C@H](NC(=N)N)C(=O)[*:2]].P.I.I.Y.[Pen].N.R.[Dab].T.[NCC[C@@H](N[*:1])C(=O)[*:2]].K.C.[Dab].R.Y}$PEPTIDE1,PEPTIDE1,6:R3-13:R3$$$V2.0), the “Hemolysis at 0.2 g/L” value in data set [1] (20% hRBC, 1 h at 37° C.) was 0%. In data set [2] (setting [5]), the “Klebsiella pneumoniae SSI3010 MIC” value turned out to be 0.125 µg/mL. Also, the “Escherichia coli ATCC 25922 MIC” value in data set [3] (setting [5]) amounted to 0.125 µg/mL. The “Escherichia coli MCR-1 Af 45 MIC” value in data set [4] worked out at 0.125 µg/mL.

Regarding `CC[C@H](C)[C@H](NC(=O)[C@@H]1C[C@@H](O)CN1C(=O)[C@@H](NC(=N)N)C(C)C)C(=O)N[C@H](C(=O)N[C@@H](Cc1ccc(O)cc1)C(=O)N[C@@H]1C(=O)N[C@@H](CC(N)=O)C(=O)N[C@@H](CCCNC(=N)N)C(=O)N[C@@H](CCN)C(=O)N[C@@H]([C@@H](C)O)C(=O)N[C@H](CCN)C(=O)N[C@@H](CCCCN)C(=O)N[C@H](C(=O)N[C@@H](CCN)C(=O)N[C@@H](CCCNC(=N)N)C(=O)N[C@@H](Cc2ccc(O)cc2)C(=O)O)CSSC1(C)C)[C@@H](C)O` [Example 188] (HELM PEPTIDE1{[CC(C)[C@H](NC(=N)N)C(=O)[*:2]].[Hyp].I.T.Y.[Pen].N.R.[Dab].T.[NCC[C@@H](N[*:1])C(=O)[*:2]].K.C.[Dab].R.Y}$PEPTIDE1,PEPTIDE1,6:R3-13:R3$$$V2.0), the “Hemolysis at 0.2 g/L” value in data set [1] (red cells of human, 1 h) is 0%. Moreover, in data set [2] (SSI3010), the “Klebsiella pneumoniae SSI3010 MIC” value is 0.25 µg/mL. Besides, the “Escherichia coli ATCC 25922 MIC” value in data set [3] (ATCC 25922) came out at 0.125 µg/mL. Besides, the “Escherichia coli MCR-1 Af 45 MIC” value in data set [4] was at most 0.125 µg/mL.
